This test deals with Kunming mice. The test can be described thus: Effects on sleep in mice: pentobarbital sodium of suprathreshold dose, sleep latency and duration. Format: in vivo. To be noted: gavage once a day for two consecutive weeks (diazepam 0.75 mg/kg; melatonin 75 mg/kg; embodiment/comparative raw material 3.5 g/kg), 50 mg/kg pentobarbital sodium i.p. 60 minutes after last administration, n=10. From the text: • Test group 1: diazepam group. • Test group 2: melatonin group. • Test group 3: diazepam+embodiment 1 group. • Test group 4: diazepam+embodiment 4 group. • Test group 5: diazepam+embodiment 5 group. • Test group 6: diazepam+comparative example 1 group. • Test group 7: diazepam+comparative example 2 group.
Note: embodiments and comparative examples were concentrated and dried to obtain test raw materials.
Test animals: Kunming mice, 18-22 g. (specific pathogen free (SPF) grade, provided by the Pharmacology Department of Traditional Chinese Medicine, Beijing University of Chinese Medicine).
Test method: The mice were randomly divided into a control group and a test group. The test group 1: diazepam of 0.75 mg/kg was administrated by gavage once a day for two consecutive weeks. The test group 2: melatonin of 75 mg/kg was administrated by gavage once a day for two consecutive weeks. The test group 3 to test group 7: after administrating diazepam of 0.75 mg/kg by gavage, 3.5 g/kg of the raw material of the embodiment or comparative example is administrated once a day for two consecutive weeks. After 60 minutes of the last intragastric administration, the mice in each group were injected with 50 mg/kg pentobarbital sodium intraperitoneally, and the sleep latency and sleep duration of the mice in each group were recorded with the disappearance of righting reflex more than […] as the sleep standard.

This is an account of results in patent publication US20250049759A1, “PHARMACEUTICAL PREPARATION FOR ASSISTING IN PROMOTING SLEEP AND PREPARATION METHOD THEREOF” (Changde Jizhi Biological Technology Co., Ltd, priority 2023, published 2025).

In turn, `CN1C(=O)CN=C(c2ccccc2)c2cc(Cl)ccc21` [Test group 1, diazepam] registered a Sleep duration of 126.37 ± 6.17 min and a Sleep latency of 2.47 ± 0.27 min.

For `COc1ccc2[nH]cc(CCNC(C)=O)c2c1` [Test group 2, melatonin], the Sleep duration is listed as 64.38 ± 3.70 min and the Sleep latency came out at 4.38 ± 0.35 min.
